Assay results from patent US20050276762A1, “Topical compositions containing 5'-adenosine-diphosphate ribose” (priority 2004, published 2005).

Legend:
Human A549 cells = settings: for cytoprotection against H2O2 (in words): same concentration as ADP-ribose (25 or 50 μg/ml)
[1] = target: poly (ADP-ribose) polymerase (PARP) (Homo sapiens, UniProt P09874); test: PARP assay (in vitro PARP inhibition); format: biochemical; settings: same concentration as ADP-ribose (4 to 10 mM); FIG. 2
Procedure: 1. […] 2. Cover the plate with an adhesive plate sealer and incubate for 2 hours at room temperature (or overnight at 2-8° C.). 1. […] After the last wash, remove any remaining PBS by decanting. Invert the plate and blot it against clean paper toweling. Note, at this time plates can be air dried and stored covered at room temperature for later use. 2. Block the wells by adding 50 μL of Strep Diluent to each well. 3. Cover the plate with an adhesive plate sealer and incubate for 1 hour at room temperature (or overnight at 2-8° C.). […] PARP will autoribosylate in the presence of NAD. 1. […] After the last wash, remove any remaining PBS by decanting. Invert the plate and blot it against clean paper toweling. 2. […] 3. Add inhibitor of interest. The final reaction volume is 50 μL/well. […] Enzyme is added last. • For 24 wells: Make for 20=2×0.5 units=10 units • 20 wells×5 μL=100 μL 10 μL enzyme+90 μl of 1× PARP buffer […] 5. Incubate the plate for 30 minutes at room temperature. The extent of ribosylation is time dependant; therefore this step can be extended if desired. 1. […] After the last wash, remove any remaining PBS by decanting. Invert the plate and blot it against clean paper toweling. 2. Dilute Strep-HRP • Dilute 1:500 • For 20 wells=1,100 μL Strep diluent+2.2 μL Strep-HRP • Add 50 μL of diluted Strep-HRP to each well. 3. Incubate for 30 minutes at 37° C. […] After the last wash, remove any remaining PBS by decanting. Invert the plate and blot it against clean paper toweling. 5. Add 50 μL TACS-Sapphire dye to each well. Incubate for 10 minutes in the dark.

poly (ADP-ribose) polymerase (PARP), sequence (P09874 whole entry): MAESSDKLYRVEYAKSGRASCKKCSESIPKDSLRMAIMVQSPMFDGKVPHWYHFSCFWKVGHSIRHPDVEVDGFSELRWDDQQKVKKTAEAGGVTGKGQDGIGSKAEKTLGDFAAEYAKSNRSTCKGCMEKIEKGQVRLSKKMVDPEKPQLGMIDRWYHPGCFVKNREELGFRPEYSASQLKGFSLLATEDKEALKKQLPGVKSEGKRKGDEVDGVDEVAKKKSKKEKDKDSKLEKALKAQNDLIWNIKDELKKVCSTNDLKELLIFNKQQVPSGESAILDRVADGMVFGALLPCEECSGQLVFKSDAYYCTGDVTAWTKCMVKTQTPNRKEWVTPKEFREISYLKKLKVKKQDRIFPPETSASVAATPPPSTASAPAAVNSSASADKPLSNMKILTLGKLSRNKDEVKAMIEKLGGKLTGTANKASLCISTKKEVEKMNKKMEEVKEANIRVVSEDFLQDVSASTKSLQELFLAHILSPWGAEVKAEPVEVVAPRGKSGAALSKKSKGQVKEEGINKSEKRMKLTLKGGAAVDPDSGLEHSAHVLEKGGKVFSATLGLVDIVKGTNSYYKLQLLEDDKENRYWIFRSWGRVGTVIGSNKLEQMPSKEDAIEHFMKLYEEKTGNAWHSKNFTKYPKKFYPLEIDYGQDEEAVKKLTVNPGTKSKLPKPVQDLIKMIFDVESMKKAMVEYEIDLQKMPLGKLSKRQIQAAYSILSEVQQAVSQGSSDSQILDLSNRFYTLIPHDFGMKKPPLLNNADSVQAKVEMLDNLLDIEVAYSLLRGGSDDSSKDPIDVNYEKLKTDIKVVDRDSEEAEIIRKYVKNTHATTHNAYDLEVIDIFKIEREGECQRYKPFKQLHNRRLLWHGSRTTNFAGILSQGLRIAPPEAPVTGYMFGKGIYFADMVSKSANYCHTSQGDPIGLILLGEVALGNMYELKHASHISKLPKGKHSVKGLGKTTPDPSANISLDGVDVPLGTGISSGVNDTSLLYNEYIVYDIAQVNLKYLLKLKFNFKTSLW

Row | Compound | protection from H2O2 cytotoxicity (Human A549 cells) [%] | cytoprotection against H2O2 (in words) (Human A549 cells) | inhibition of PARP activity (in words) [1] | protection of cells from cytotoxicity mediated cell death (in words) (Human A549 cells)
1 | Nc1ncnc2c1ncn2[C@@H]1O[C@H](COP(=O)(O)OP(=O)(O)O[C@H]2O[C@H](CO)[C@@H](O)[C@H](O)[C@H]2O)[C@@H](O)[C@H]1O [ADP-glucose] | ~25 | cytoprotection was specific to ADP-ribose | unable to inhibit PARP activity | 
2 | Nc1ncnc2c1ncn2[C@@H]1O[C@H](COP(=O)(O)O)[C@@H](O)[C@H]1O [AMP] |  | cytoprotection was specific to ADP-ribose | unable to inhibit PARP activity | 
3 | Nc1ncnc2c1ncn2[C@@H]1O[C@H](CO)[C@@H](O)[C@H]1O [adenosine] |  | cytoprotection was specific to ADP-ribose | unable to inhibit PARP activity | 
4 | N=c1c2ncn3c2ncn1[C@@H]1O[C@H](COP(=O)(O)OP(=O)(O)OC[C@H]2O[C@@H]3[C@H](O)[C@@H]2O)[C@@H](O)[C@H]1O [cADP-ribose] |  |  |  | unable to protect cells from cytotoxicity mediated cell death
